Experimental findings from patent US20250368627A1, “PYRAZOLESULFONAMIDES AS ANTITUMOR AGENTS” (Peloton Therapeutics, Inc., a fully owned subsidiary of …, priority 2019, published 2025) are described below.

Test [1] has as its target T1, DDB1DB/DCAF15 and RBM39 R1R2 complex (Homo sapiens, UniProt Q14498+Q66K64).
T1 construct: Amino acids 150 to 331 of RBM39 were cloned into pGEX4T3; GST (from vector pGEX4T3); TEV cleavage site (N); made in house; host or cells: DDB1DB/His-DCAF15: baculovirus/Sf9 co-expression; RBM39 R1R2: E. coli (pGEX4T3)
Description: DCAF15 RBM39 Complex Formation Assay (FRET). As to conditions: FRET ratio Em 665/Em 615, incubated overnight at 4° C. In kind it is binding. The method, boiled down:
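Ternary complex formation read by TR-FRET (Em 665/615, excitation 340 nm) after overnight incubation at 4° C of 20 nM baculovirus DDB1DB/His-DCAF15 and 50 nM E. coli RBM39 RRM1-RRM2 FLAG fragment with 14-point, 3-fold compound dilutions from 1 μM; EC50 from 4-parameter fit.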

Test [2] relates to HCT116 human colorectal carcinoma cells. Briefly: CellTiter-Glo Luminescent Cell Viability Assay. In kind it is cell-based. The conditions noted are these: HCT-116, 72 h, 3 days. The method, boiled down: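 CellTiter-Glo luminescence gave viability after 3 days of compound exposure in HCT116 cells grown in DMEM/10% FBS. Final concentrations ran from 5 to 0.0002 […] in 1:3 steps, each in triplicate, with IC50 derived from the curves.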
For orientation: Cellular ATP, detected with luciferase, serves as a proxy for viable cell number.

T1 sequence (Q66K64 whole entry, the tested form may be a part): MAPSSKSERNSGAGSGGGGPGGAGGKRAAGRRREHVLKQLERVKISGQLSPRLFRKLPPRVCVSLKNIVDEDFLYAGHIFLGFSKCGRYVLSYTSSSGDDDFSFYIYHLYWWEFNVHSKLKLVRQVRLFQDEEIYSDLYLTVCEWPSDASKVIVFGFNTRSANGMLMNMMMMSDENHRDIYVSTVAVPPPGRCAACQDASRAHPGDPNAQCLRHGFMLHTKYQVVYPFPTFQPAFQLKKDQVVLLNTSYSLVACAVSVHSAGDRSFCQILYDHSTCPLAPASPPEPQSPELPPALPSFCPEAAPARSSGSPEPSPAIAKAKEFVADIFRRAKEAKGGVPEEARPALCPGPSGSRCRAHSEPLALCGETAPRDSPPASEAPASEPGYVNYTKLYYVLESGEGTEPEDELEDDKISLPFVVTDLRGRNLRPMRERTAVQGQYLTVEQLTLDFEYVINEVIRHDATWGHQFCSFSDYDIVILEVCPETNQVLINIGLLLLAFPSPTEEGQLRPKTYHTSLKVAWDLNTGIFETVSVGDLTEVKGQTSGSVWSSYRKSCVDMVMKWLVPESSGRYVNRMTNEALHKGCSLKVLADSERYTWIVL
T1 sequence (Q14498 150-331): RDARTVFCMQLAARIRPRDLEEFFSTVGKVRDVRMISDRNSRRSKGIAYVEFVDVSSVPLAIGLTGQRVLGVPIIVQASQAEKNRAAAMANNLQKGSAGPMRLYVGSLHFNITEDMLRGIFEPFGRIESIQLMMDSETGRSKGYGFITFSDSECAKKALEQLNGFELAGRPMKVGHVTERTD
T1 sequence (Q16531 with tags, fused parts or gaps DEL396-708 partner): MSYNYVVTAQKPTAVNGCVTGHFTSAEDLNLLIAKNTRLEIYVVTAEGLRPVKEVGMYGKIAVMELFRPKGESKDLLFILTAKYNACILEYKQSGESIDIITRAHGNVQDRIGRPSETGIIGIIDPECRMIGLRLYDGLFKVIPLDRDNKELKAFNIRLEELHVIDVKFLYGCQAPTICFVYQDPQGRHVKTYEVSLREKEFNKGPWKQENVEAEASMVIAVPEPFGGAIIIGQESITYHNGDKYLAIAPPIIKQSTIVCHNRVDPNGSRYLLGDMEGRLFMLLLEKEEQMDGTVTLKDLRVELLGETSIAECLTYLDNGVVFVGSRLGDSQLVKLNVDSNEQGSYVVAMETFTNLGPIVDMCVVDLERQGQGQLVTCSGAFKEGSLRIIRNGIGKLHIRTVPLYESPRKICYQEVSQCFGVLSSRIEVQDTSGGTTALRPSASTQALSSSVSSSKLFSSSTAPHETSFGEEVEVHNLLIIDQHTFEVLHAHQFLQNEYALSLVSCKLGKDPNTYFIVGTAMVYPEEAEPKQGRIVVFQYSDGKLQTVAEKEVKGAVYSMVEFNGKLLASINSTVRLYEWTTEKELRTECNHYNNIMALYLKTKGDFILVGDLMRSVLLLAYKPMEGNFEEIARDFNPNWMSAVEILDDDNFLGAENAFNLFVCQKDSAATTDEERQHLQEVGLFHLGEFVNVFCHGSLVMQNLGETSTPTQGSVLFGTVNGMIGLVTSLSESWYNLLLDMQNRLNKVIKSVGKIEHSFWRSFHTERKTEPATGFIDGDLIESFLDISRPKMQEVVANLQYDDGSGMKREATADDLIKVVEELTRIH

As to `Cc1ccc(NS(=O)(=O)c2cnn(CCS(C)(=O)=O)c2)c2[nH]cc(C#N)c12` [Compound 67, N-(3-cyano-4-methyl-1H-indol-7-yl)-1-(2-methylsulfonylethyl)pyrazole-4-sulfonamide], the IC50 (usually the concentration at which inhibition is half-maximal) in test [1] was less than 250 nM. The EC50 (in general, the concentration needed to bring the measured effect to its halfway point) in test [2] was 250 to 1000 nM.

`CCn1cc(S(=O)(=O)Nc2ccc(C)c3c(C#N)c[nH]c23)cn1` [Compound 68, N-(3-cyano-4-methyl-1H-indol-7-yl)-1-ethyl-pyrazole-4-sulfonamide]: the IC50 in test [1] was less than 250 nM. In addition, the EC50 in test [2] is less than 250 nM.

On to `Cc1ccc(NS(=O)(=O)c2cnn(CC3CC3)c2)c2[nH]cc(C#N)c12` [Compound 69, N-(3-cyano-4-methyl-1H-indol-7-yl)-1-(cyclopropylmethyl)pyrazole-4-sulfonamide], for which the IC50 in test [1] was less than 250 nM. Also, in test [2], the EC50 is less than 250 nM.

As to `Cc1ccc(NS(=O)(=O)c2cnn(CF)c2)c2[nH]cc(C#N)c12` [Compound 70, N-(3-cyano-4-methyl-1H-indol-7-yl)-1-(fluoromethyl)pyrazole-4-sulfonamide], the IC50 in test [1] was less than 250 nM. In addition, the EC50 in test [2] was less than 250 nM.

In the case of `Cc1ccc(NS(=O)(=O)c2cnn(CC3(C)COC3)c2)c2[nH]cc(C#N)c12` [Compound 71, N-(3-cyano-4-methyl-1H-indol-7-yl)-1-[(3-methyloxetan-3-yl)methyl]pyrazole-4-sulfonamide], the IC50 in test [1] was less than 250 nM. In addition, the EC50 in test [2] was in the range of 250 to 1000 nM.

As for `Cc1ccc(NS(=O)(=O)c2cnn(CC3(F)COC3)c2)c2[nH]cc(C#N)c12` [Compound 72, N-(3-cyano-4-methyl-1H-indol-7-yl)-1-[(3-fluorooxetan-3-yl)methyl]pyrazole-4-sulfonamide], the IC50 in test [1] was less than 250 nM. In addition, in test [2], the EC50 was 250 to 1000 nM.

As to `Cc1ccc(NS(=O)(=O)c2cnn(CCCF)c2)c2[nH]cc(C#N)c12` [Compound 73, N-(3-cyano-4-methyl-1H-indol-7-yl)-1-(3-fluoropropyl)pyrazole-4-sulfonamide], the IC50 in test [1] was less than 250 nM. The EC50 in test [2] is less than 250 nM.

With `Cc1ccc(NS(=O)(=O)c2cnn(C)c2)c2[nH]ccc12` [Compound 74, 1-methyl-N-(4-methyl-1H-indol-7-yl)pyrazole-4-sulfonamide], the IC50 in test [1] was greater than 1000 nM. Also, the EC50 in test [2] is greater than 1000 nM.

As for `Cc1ccc(NS(=O)(=O)c2cnn(C)c2)c2[nH]cc(Cl)c12` [Compound 75, N-(3-chloro-4-methyl-1H-indol-7-yl)-1-methyl-pyrazole-4-sulfonamide], the IC50 in test [1] is less than 250 nM. The EC50 in test [2] was less than 250 nM.

As to `Cc1ccc(NS(=O)(=O)c2cnn(CC(C)(C)C#N)c2)c2[nH]cc(C#N)c12` [Compound 76, N-(3-cyano-4-methyl-1H-indol-7-yl)-1-(2-cyano-2-methyl-propyl)pyrazole-4-sulfonamide], the IC50 in test [1] was less than 250 nM. Also, in test [2], the EC50 fell in the range of 250 to 1000 nM.

As for `Cc1ccc(NS(=O)(=O)c2cnn(CCC#N)c2)c2[nH]cc(C#N)c12` [Compound 77, 1-(2-Cyanoethyl)-N-(3-cyano-4-methyl-1H-indol-7-yl)pyrazole-4-sulfonamide], the IC50 in test [1] is less than 250 nM. The EC50 in test [2] is less than 250 nM.

In the case of `Cc1ccc(NS(=O)(=O)c2cnn(CC3CCC3)c2)c2[nH]cc(C#N)c12` [Compound 78, N-(3-cyano-4-methyl-1H-indol-7-yl)-1-(cyclobutylmethyl)pyrazole-4-sulfonamide], the IC50 in test [1] was less than 250 nM. Moreover, in test [2], the EC50 was in the range of 250 to 1000 nM.

As for `Cc1ccc(NS(=O)(=O)c2cnn(CC3CC3(F)F)c2)c2[nH]cc(C#N)c12` (stereo not shown) [Compound 79, N-(3-cyano-4-methyl-1H-indol-7-yl)-1-[(2,2-difluorocyclopropyl)methyl]pyrazole-4-sulfonamide], the IC50 in test [1] was less than 250 nM. Further, the EC50 in test [2] lay within 250 to 1000 nM.

As to `C=C(CF)n1cc(S(=O)(=O)Nc2ccc(C)c3c(C#N)c[nH]c23)cn1` [Compound 80, N-(3-cyano-4-methyl-1H-indol-7-yl)-1-[1-(fluoromethyl)vinyl]pyrazole-4-sulfonamide], in test [1], the IC50 was less than 250 nM. The concentration for a half-maximal effect (EC50) in test [2] is less than 250 nM.

On to `Cn1cc(S(=O)(=O)Nc2ccc(Cl)c3c(Cl)c[nH]c23)cn1` [Compound 81, N-(3,4-dichloro-1H-indol-7-yl)-1-methyl-pyrazole-4-sulfonamide], for which the IC50 in test [1] was less than 250 nM. Moreover, the EC50 in test [2] is less than 250 nM.

`Cn1cc(S(=O)(=O)Nc2ccc(Cl)c3c(C#N)c[nH]c23)cn1` [Compound 82, N-(4-chloro-3-cyano-1H-indol-7-yl)-1-methyl-pyrazole-4-sulfonamide]: the IC50 in test [1] was less than 250 nM. The EC50 in test [2] is less than 250 nM.

Turning to `O=S(=O)(Nc1cccc2c(Cl)c[nH]c12)c1cnn(C2CC(O)C2)c1` (stereo not shown) [Compound 83, N-(3-chloro-1H-indol-7-yl)-1-(3-hydroxycyclobutyl)pyrazole-4-sulfonamide], the IC50 in test [1] was less than 250 nM. Besides, the EC50 in test [2] was in the range of 250 to 1000 nM.

In the case of `Cc1ccc(NS(=O)(=O)c2cnn(CC(C)(C)S(C)(=O)=O)c2)c2[nH]cc(C#N)c12` [Compound 84, N-(3-cyano-4-methyl-1H-indol-7-yl)-1-(2-methyl-2-methylsulfonyl-propyl)pyrazole-4-sulfonamide], the IC50 in test [1] was less than 250 nM. Besides, in test [2], the EC50 is greater than 1000 nM.

Consider `Cc1ccc(NS(=O)(=O)c2cnn(C3CC4(COC4)C3)c2)c2[nH]cc(C#N)c12` [Compound 85, N-(3-cyano-4-methyl-1H-indol-7-yl)-1-(2-oxaspiro[3.3]heptan-6-yl)pyrazole-4-sulfonamide], for which the IC50 in test [1] is less than 250 nM. For the same molecule, the EC50 in test [2] was 250 to 1000 nM.

On to `Cc1ccc(NS(=O)(=O)c2cnn(C3CCC(F)(F)CC3)c2)c2[nH]cc(C#N)c12` [Compound 86, N-(3-cyano-4-methyl-1H-indol-7-yl)-1-(4,4-difluorocyclohexyl)pyrazole-4-sulfonamide], for which the IC50 in test [1] was less than 250 nM. The concentration for a half-maximal effect (EC50) in test [2] is 250 to 1000 nM.

Regarding `Cc1ccc(NS(=O)(=O)c2cnn(C3CCN(CC(F)(F)F)CC3)c2)c2[nH]cc(C#N)c12` [Compound 87, N-(3-cyano-4-methyl-1H-indol-7-yl)-1-[1-(2,2,2-trifluoroethyl)-4-piperidyl]pyrazole-4-sulfonamide], the 50% inhibitory concentration (IC50) in test [1] was less than 250 nM. Moreover, the EC50 in test [2] was greater than 1000 nM.

As for `Cc1ccc(NS(=O)(=O)c2cnn(C3CCCC3)c2)c2[nH]cc(C#N)c12` [Compound 88, N-(3-cyano-4-methyl-1H-indol-7-yl)-1-cyclopentyl-pyrazole-4-sulfonamide], the concentration for half-maximal inhibition (IC50) in test [1] is less than 250 nM. Further, the EC50 in test [2] was in the range of 250 to 1000 nM.

`Cc1ccc(NS(=O)(=O)c2cnn(Cc3ccccc3)c2)c2[nH]cc(C#N)c12` [Compound 89, 1-benzyl-N-(3-cyano-4-methyl-1H-indol-7-yl)pyrazole-4-sulfonamide]: the IC50 in test [1] was less than 250 nM. Also, the EC50 in test [2] fell in the range of 250 to 1000 nM.

Turning to `CCCn1cc(S(=O)(=O)Nc2ccc(C)c3c(C#N)c[nH]c23)cn1` [Compound 90, N-(3-cyano-4-methyl-1H-indol-7-yl)-1-propyl-pyrazole-4-sulfonamide], the IC50 in test [1] was less than 250 nM. Further, the EC50 in test [2] is less than 250 nM.

As to `N#Cc1c[nH]c2c(NS(=O)(=O)c3cnn(CC(F)F)c3)ccc(Cl)c12` [Compound 91, N-(4-chloro-3-cyano-1H-indol-7-yl)-1-(2,2-difluoroethyl)pyrazole-4-sulfonamide], the IC50 in test [1] was less than 250 nM. The EC50 in test [2] was in the range of 250 to 1000 nM.

For `N#Cc1c[nH]c2c(NS(=O)(=O)c3cnn(CC(F)F)c3)ccc(F)c12` [Compound 92, N-(3-cyano-4-fluoro-1H-indol-7-yl)-1-(2,2-difluoroethyl)pyrazole-4-sulfonamide], in test [1], the IC50 was less than 250 nM. Moreover, the 50% effective concentration (EC50) in test [2] lay within 250 to 1000 nM.

Consider `Cc1ccc(NS(=O)(=O)c2cnn(S(C)(=O)=O)c2)c2[nH]cc(C#N)c12` [Compound 93, N-(3-cyano-4-methyl-1H-indol-7-yl)-1-methylsulfonyl-pyrazole-4-sulfonamide], for which, in test [1], the IC50 is less than 250 nM. In addition, the EC50 in test [2] is 250 to 1000 nM.

As to `Cc1ccc(NS(=O)(=O)c2cnn(C(C)(C)C)c2)c2[nH]cc(C#N)c12` [Compound 94, 1-tert-butyl-N-(3-cyano-4-methyl-1H-indol-7-yl)pyrazole-4-sulfonamide], in test [1], the IC50 was less than 250 nM. In addition, the EC50 in test [2] is less than 250 nM.

In the case of `CC(C)(C)n1cc(S(=O)(=O)Nc2cccc3c(Cl)c[nH]c23)cn1` [Compound 95, 1-tert-butyl-N-(3-chloro-1H-indol-7-yl)pyrazole-4-sulfonamide], the IC50 in test [1] is less than 250 nM. In test [2], the EC50 lay within 250 to 1000 nM.

For `Cn1cc(S(=O)(=O)Nc2ccc(C(F)(F)F)c3cc[nH]c23)cn1` [Compound 96, 1-methyl-N-[4-(trifluoromethyl)-1H-indol-7-yl]pyrazole-4-sulfonamide], the concentration for half-maximal inhibition (IC50) in test [1] was 250 to 1000 nM. The EC50 in test [2] was greater than 1000 nM.

On to `Cn1cc(S(=O)(=O)Nc2ccc(C(F)(F)F)c3c(Cl)c[nH]c23)cn1` [Compound 97, N-[3-chloro-4-(trifluoromethyl)-1H-indol-7-yl]-1-methyl-pyrazole-4-sulfonamide], for which the IC50 in test [1] was less than 250 nM. In test [2], the EC50 was greater than 1000 nM.

With `Cc1ccc(NS(=O)(=O)c2cnn(CC(F)F)c2)c2[nH]cc(Cl)c12` [Compound 98, N-(3-chloro-4-methyl-1H-indol-7-yl)-1-(2,2-difluoroethyl)pyrazole-4-sulfonamide], the IC50 in test [1] is less than 250 nM. In test [2], the EC50 is less than 250 nM.
